Data: PubChem BioAssay AID1404 (The Scripps Research Institute Molecular Screening Center, 2008)
Calls of active or inactive are those of the source.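 Rule for the calls: active = EC50 for STAT3 reporter activation at or below 10 µM; inactive = the rest.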

These compounds were tested on U3A cells, IL-6 STAT3 luciferase reporter, luminescence (assay: IL-6-driven STAT3 luciferase signal enhancement – U3A cells, STAT1-deficient, luminescence, IL-6 stimulus, counter-screen for STAT1 activator project, dose response (AID 1404)).

Compound | EC50
O=C(/C=C/Nc1ccc(F)cc1)c1ccc(Br)cc1 | > 55.7 µM (inactive)
O=C(OCc1csc(-c2ccccc2)n1)c1cccs1 | > 55.7 µM (inactive)
O=C(Nc1ccc(-c2nc3cccnc3s2)cc1)c1ccco1 | > 55.7 µM (inactive)
Cc1ccc(-c2cc(N)n(-c3ccccc3)n2)cc1 | > 55.7 µM (inactive)
Cc1occc1C(=O)Nc1ccc2c(c1)CCC2 | > 55.7 µM (inactive)
COc1ccc(-c2cc(C)nc3c(-c4ccccc4)cnn23)cc1 | > 55.7 µM (inactive)
CC(=O)NC(=S)Nc1sc2c(c1C#N)CCCCC2 | > 55.7 µM (inactive)
COc1cccc(NC(=O)Nc2ccc(C(C)(C)C)cc2)c1 | > 55.7 µM (inactive)
O=C(/C=C/c1cccc(F)c1)N1CCc2ccccc21 | > 55.7 µM (inactive)
CC(=O)Nc1ccccc1C(=O)OCc1cccc(F)c1 | > 55.7 µM (inactive)
CCOc1ccc2nc(N3CCOCC3)nc(C)c2c1 | > 55.7 µM (inactive)
O=C(/C(C=Nc1ccc(F)cc1)=C(/O)c1ccco1)C(F)(F)F | > 55.7 µM (inactive)
COc1ccc2c(c1)oc(=O)c1cc(OC)ccc12 | > 55.7 µM (inactive)
Cc1ccc(-c2cnc(-c3ccncc3)o2)cc1 | > 55.7 µM (inactive)
CN(C)c1nc(N)nc(CSc2nc3cc(Cl)ccc3o2)n1 | > 55.7 µM (inactive)
Nc1ccccc1Nc1cc(-c2ccccc2)[nH]n1 | > 55.7 µM (inactive)
O=C(/C=C/c1ccc(F)cc1)Nc1nc2ccccc2[nH]1 | > 55.7 µM (inactive)
Cc1ccc2nc(NC(=O)CCn3cccc3)sc2c1 | > 55.7 µM (inactive)
COc1cc(NC(=O)c2csc3c2CCCC3)ncn1 | > 55.7 µM (inactive)
Clc1ccc(-n2ncc3c(NCC4CCCO4)ncnc32)cc1 (stereo unspecified) | > 55.7 µM (inactive)
O=C(Nc1cccc(Cl)c1)c1ccc2c(=O)n3c(nc2c1)CCCCC3 | > 55.7 µM (inactive)
COc1ccc(Nc2oc(-c3cccs3)nc2C#N)cc1 | > 55.7 µM (inactive)

Compound | EC50
C=CCn1c(C)cc(C(=O)CSc2nc3ccccc3o2)c1C | > 55.7 µM (inactive)
COc1ccc(-c2csc(N3C(=O)CNC3=S)n2)cc1 | > 55.7 µM (inactive)
Clc1ccc(-n2ncc3c(N4CCCC4)ncnc32)cc1 | > 55.7 µM (inactive)
CN(C)c1ccc(C(=O)OCC(=O)c2cccs2)cc1 | > 55.7 µM (inactive)
CCNc1nc(-c2cc3ccccc3o2)cs1 | > 55.7 µM (inactive)
Nc1ccc2nn(-c3ccccc3)nc2c1 | > 55.7 µM (inactive)
CCOC(=O)CSc1nc(-c2ccncc2)ccc1C#N | > 55.7 µM (inactive)
O=C(NC(=S)Nc1ccccn1)c1ccc([N+](=O)[O-])cc1 | > 55.7 µM (inactive)
CCc1ccc(Nc2ncc3c(n2)CC(C)CC3=O)cc1 (stereo unspecified) | > 55.7 µM (inactive)
Cc1ccc(C(=O)/C=C/Nc2cccc([N+](=O)[O-])c2)o1 | > 55.7 µM (inactive)
Nc1ncc(-c2cc3ccccc3oc2=O)s1 | > 55.7 µM (inactive)
O=C(Cn1cnc2ccccc2c1=O)c1ccc(Cl)cc1 | > 55.7 µM (inactive)
Nc1ccc2oc(-c3ccccc3Cl)nc2c1 | > 55.7 µM (inactive)
Cc1ccc(NC(=O)Nc2ccc3oc(C)nc3c2)cc1 | > 55.7 µM (inactive)
O=C(NCCC1=CCCCC1)c1ccc(F)cc1 | > 55.7 µM (inactive)
Nc1nc2ccc(-c3nc4ccccc4o3)cc2s1 | > 55.7 µM (inactive)
COc1cccc(N/C=C/C(=O)c2ccc(Cl)cc2)c1 | > 55.7 µM (inactive)
Fc1ccccc1CSc1nnc(-c2cccnc2)o1 | > 55.7 µM (inactive)
Cc1ccc(C(=O)Nc2nc3ccccc3s2)s1 | > 55.7 µM (inactive)
Cc1ccc(C(=O)Nc2nc3c(s2)CCCC3)o1 | > 55.7 µM (inactive)
O=C(/C=C/c1ccccc1)Nc1ccc(Cl)cn1 | > 55.7 µM (inactive)
c1ccc(CNc2ccc3ccccc3n2)nc1 | > 55.7 µM (inactive)

Compound | EC50
O=C(Nc1ccc2c(c1)OCCO2)c1ccc(Br)s1 | > 55.7 µM (inactive)
CC(=O)COc1ccc2c(C)c(-c3ccccc3)c(=O)oc2c1 | > 55.7 µM (inactive)
CCOCC(=O)Nc1nc2ccc(OCC)cc2s1 | > 55.7 µM (inactive)
CCC(C)NC(=O)c1cc(-c2ccc(OC)cc2)on1 (stereo unspecified) | > 55.7 µM (inactive)
C=CCNc1nc(-c2cc3ccccc3o2)cs1 | > 55.7 µM (inactive)
CC(C)Oc1ccc2c(=O)c(-c3ccccc3)coc2c1 | > 55.7 µM (inactive)
COc1ccc2nc(Nc3ccc4c(c3)OCO4)sc2c1 | > 55.7 µM (inactive)
C/C(=C\c1ccccc1)C(=O)Nc1nccs1 | > 55.7 µM (inactive)
Cc1cc(C(=O)NCCC2=CCCCC2)c(C)o1 | > 55.7 µM (inactive)
Cc1ccc(/C=C/C(=O)Nc2ccccc2C(N)=O)cc1 | > 55.7 µM (inactive)
O=C(Nc1nccs1)c1ccc(-c2ccc([N+](=O)[O-])cc2)o1 | > 55.7 µM (inactive)
Cc1nc(-c2ccc(NC(=O)c3ccccc3Br)cc2)cs1 | > 55.7 µM (inactive)
NC(=O)Cc1ccc2sc(-c3ccccc3)nc2c1 | > 55.7 µM (inactive)
c1csc(C2=NNC(=NC3CCCCC3)SC2)c1 | > 55.7 µM (inactive)
CC(=O)Nc1cccc(-c2cnc3ccccc3n2)c1 | > 55.7 µM (inactive)
CCc1ccc(NC(=O)N2CCC(c3ccccc3)C2)cc1 (stereo unspecified) | > 55.7 µM (inactive)
CC(=O)Nc1ccc(-c2csc(Nc3cccc(C)n3)n2)cc1 | > 55.7 µM (inactive)
O=C(/C=C/Nc1ccccc1F)c1ccc(Br)cc1 | > 55.7 µM (inactive)
Cc1nc(-c2ccc(NC(=O)c3ccccc3C)cc2)cs1 | > 55.7 µM (inactive)
Cc1ccc(C(=O)N2CCc3ccccc32)o1 | > 55.7 µM (inactive)
Cc1ncsc1C(=O)Nc1nc2c(s1)CCCC2 | > 55.7 µM (inactive)
COc1ccc(-c2nc3ccc([N+](=O)[O-])cc3[nH]2)cc1 | > 55.7 µM (inactive)

Compound | EC50
CCc1c(C)[nH]c(C(=O)OCc2ccccc2)c1C | > 55.7 µM (inactive)
CC(C)=CC(=O)Nc1nc2ccc([N+](=O)[O-])cc2s1 | > 55.7 µM (inactive)
CC(C)(C)N=C1NN=C(c2cc3ccccc3o2)CS1 | > 55.7 µM (inactive)
COc1ccc2[nH]c3c(c2c1)CCn1c-3nc2ccccc2c1=O | > 55.7 µM (inactive)
Fc1ccc2nc(Nc3nc4cc5c(cc4s3)OCCO5)sc2c1 | > 55.7 µM (inactive)
Cc1nc2ccc(-c3nc4ccccc4o3)cc2[nH]1 | > 55.7 µM (inactive)
c1cncc(-c2nc3cc4ccccc4cc3[nH]2)c1 | > 55.7 µM (inactive)
CN1C(=O)/C(=C/C=C2\SCCN2C)SC1=S | > 55.7 µM (inactive)
Cc1ccc(-c2cc3nc(C)cc(NCc4ccco4)n3n2)cc1 | > 55.7 µM (inactive)
O=[N+]([O-])c1ccccc1OCCCn1cnc2ccccc21 | > 55.7 µM (inactive)
O=C(NC(=S)Nc1ccc(F)cc1)c1ccc2c(c1)OCCO2 | > 55.7 µM (inactive)
CCOC(=O)/C(C#N)=C/c1cc(C)n(-c2ccccc2)c1C | > 55.7 µM (inactive)
COc1ccc(-c2cc3ncc(-c4ccccc4)c(N)n3n2)cc1 | > 55.7 µM (inactive)
CCOC(=O)c1cnc2c(-c3ccccc3)cnn2c1N | > 55.7 µM (inactive)
COc1ccc(NC(=S)Nc2ccc3nccnc3c2)cc1 | > 55.7 µM (inactive)
COc1ccc2nc(Nc3nc(C)c(C(C)=O)s3)sc2c1 | > 55.7 µM (inactive)
Cc1ccc(/C=C/C(=O)N2CCCC(C)C2)cc1 (stereo unspecified) | > 55.7 µM (inactive)
COc1ccc(N/C=C\C(=O)c2ccc3c(c2)OCO3)cc1OC | > 55.7 µM (inactive)
O=C(O)c1ccccc1C(=O)Nc1ccc(-c2csc(-c3ccccc3)n2)cc1 | > 55.7 µM (inactive)
Nc1ccccc1C(=O)OCC(=O)N1CCc2ccccc21 | > 55.7 µM (inactive)
O=C(/C=C/c1ccco1)Nc1ccccn1 | > 55.7 µM (inactive)
Cc1cccc(Nc2n[nH]c(C)c2[N+](=O)[O-])c1 | > 55.7 µM (inactive)

Compound | EC50
COc1ccc(/C=C/C(=O)Nc2ccccc2)cc1OC | > 55.7 µM (inactive)
Cc1nc2ccc3nc(NC(=O)c4ccco4)sc3c2s1 | > 55.7 µM (inactive)
CC(=O)c1cccc(N/C=C\C(=O)c2ccc(C)cc2)c1 | > 55.7 µM (inactive)
CCN(CC)c1ccc2cc(C(=O)Nc3ccccn3)c(=O)oc2c1 | > 55.7 µM (inactive)
CCCCCNc1nc(-c2ccccc2)cs1 | > 55.7 µM (inactive)
C=CCNC(=S)NNC(=O)COc1ccc2cc(Br)ccc2c1 | > 55.7 µM (inactive)
C=CCNC(=O)c1cc(-c2ccc(Br)cc2)on1 | > 55.7 µM (inactive)
CCCCOC(=O)Nc1nc2ccccc2s1 | > 55.7 µM (inactive)
Cc1nnc(SCC(=O)Nc2ccc(-c3nc4ccccc4s3)cc2)s1 | > 55.7 µM (inactive)
CN(C)c1ccnc2sc(C(=O)c3ccccc3)c(N)c12 | > 55.7 µM (inactive)
CCOC(=O)c1sc(NC(=O)c2sccc2C)cc1C | > 55.7 µM (inactive)
O=C(c1ccccc1)c1ccc(N2CCCC2)cc1 | > 55.7 µM (inactive)
O=C(CCc1nnc(CCCc2ccccc2)o1)N1CCCCCC1 | > 55.7 µM (inactive)
CCCOC(=O)c1ccc(-c2ccc(C=O)o2)cc1 | > 55.7 µM (inactive)
CC(=O)c1cccc(NC(=S)NC(=O)c2cccc(C)c2)c1 | > 55.7 µM (inactive)
CCOC(=O)c1ccc2nc(NC(C)=O)sc2c1 | > 55.7 µM (inactive)
O=C(/C(C=Nc1ccc(Br)cc1)=C(/O)c1ccco1)C(F)(F)F | > 55.7 µM (inactive)
N#C/C(=C\c1ccc(N2CCOCC2)o1)c1nc2ccccc2[nH]1 | > 55.7 µM (inactive)
